The structures appear in SMILES notation.

For the assay, the system named is T1, LipSm.
T1 construct: mature form (371 residues, signal peptide cleaved in E. coli BL21(DE3) after LAA), C-terminal 8 extra residues incl; ORF 400 residues
Nature of the assay: initial velocities, 4-nitrophenol release at […] nm. It is filed as biochemical, Stenotrophomonas maltophilia. The settings on record: 100 mM Tris-HCl pH 8.0, 1% w/v Triton X-100, 5% v/v DMSO, 40 °C.

A word on the Km: it is the concentration of substrate that gives half-maximal velocity. In the case of `CC(=O)Oc1ccc([N+](=O)[O-])cc1` [Ac-4-NPh, 4-nitrophenyl acetate], where the note is “850 nM enzyme”, the Km was found to be 473 µM.
Regarding `CCCC(=O)Oc1ccc([N+](=O)[O-])cc1` [Bu-4-NPh, 4-nitrophenyl butyrate], the Km (850 nM enzyme, limited substrate solubility) was determined as 1930 µM.
With `CCCCCCCCCCCC(=O)Oc1ccc([N+](=O)[O-])cc1` [La-4-NPh, 4-nitrophenyl laurate], for the setting “2200 nM enzyme, limited substrate solubility”, the Km was found to be 349 µM.

The values above are taken from PMC5806266, “Molecular, biochemical and kinetic analysis of a novel, thermostable lipase (LipSm) from Stenotrophomonas maltophilia Psi-1, the first member of a new bacterial lipase family (XVIII)” (Journal of Biological Research, 2018).
